From ChEMBL document CHEMBL1201862, “PubChem BioAssay data set” (2004)
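Where inhibition never reached the appropriate level, the endpoint shown equals the highest concentration tested. Otherwise, values were interpolated linearly from a five-concentration, 48-hour dose response in 96-well plates. GI50 marks 50% less growth.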 The source made the active and inactive calls. Cut-off read from the data, not from the text of the source: active = GI50 up to about 1.1 µM and inactive = higher.

Tests used:
Assay in all cases: DTP human tumour cell line panel, 48 h
Malme-3M = system: Malme-3M
NCI/ADR-RES = system: NCI/ADR-RES
U-251 = system: U-251
SK-MEL-28 = system: SK-MEL-28
A549 = system: A549
EKVX = system: EKVX
CCRF-CEM = system: CCRF-CEM
RXF 393 = system: RXF 393
LOX IMVI = system: LOX IMVI
MCF7 = system: MCF7
NCI-H23 = system: NCI-H23
SF-268 = system: SF-268
M14 = system: M14
SF-539 = system: SF-539
COLO 205 = system: COLO 205
HOP-62 = system: HOP-62
SK-MEL-5 = system: SK-MEL-5
A498 = system: A498
NCI-H460 = system: NCI-H460
SNB-75 = system: SNB-75

| SMILES | GI50 (Malme-3M) | GI50 (NCI/ADR-RES) | GI50 (U-251) | GI50 (SK-MEL-28) | GI50 (A549) | GI50 (EKVX) | GI50 (CCRF-CEM) | GI50 (RXF 393) | GI50 (LOX IMVI) | GI50 (MCF7) | GI50 (NCI-H23) | GI50 (SF-268) | GI50 (M14) | GI50 (SF-539) | GI50 (COLO 205) | GI50 (HOP-62) | GI50 (SK-MEL-5) | GI50 (A498) | GI50 (NCI-H460) | GI50 (SNB-75) |
| --- | --- | --- | --- | --- | --- | --- | --- | --- | --- | --- | --- | --- | --- | --- | --- | --- | --- | --- | --- | --- |
| CCCSc1cc(Cl)c(C)cc1S(=O)(=O)n1ccnc1OCCCN(C)C | > 100 µM (inactive) | > 100 µM (inactive) | > 100 µM (inactive) | > 100 µM (inactive) | > 100 µM (inactive) | > 100 µM (inactive) | > 100 µM (inactive) | > 100 µM (inactive) | > 100 µM (inactive) | > 100 µM (inactive) | > 100 µM (inactive) | > 100 µM (inactive) | > 100 µM (inactive) | > 100 µM (inactive) | > 100 µM (inactive) | > 100 µM (inactive) | > 100 µM (inactive) | > 100 µM (inactive) | > 100 µM (inactive) | – |
| CSc1nc(=O)n(CCC#N)nc1SC | 15.2 µM (inactive) | > 100 µM (inactive) | > 100 µM (inactive) | 14 µM (inactive) | > 100 µM (inactive) | > 100 µM (inactive) | – | – | 19.5 µM (inactive) | 2.72 µM (inactive) | 55.3 µM (inactive) | 27.9 µM (inactive) | 18.7 µM (inactive) | > 100 µM (inactive) | 19.5 µM (inactive) | > 100 µM (inactive) | 19.1 µM (inactive) | > 100 µM (inactive) | > 100 µM (inactive) | 51.5 µM (inactive) |
| Cc1cccc(N(CCC#N)S(=O)(=O)c2ccccc2)c1 | > 100 µM (inactive) | > 100 µM (inactive) | > 100 µM (inactive) | > 100 µM (inactive) | > 100 µM (inactive) | > 100 µM (inactive) | > 100 µM (inactive) | – | > 100 µM (inactive) | > 100 µM (inactive) | > 100 µM (inactive) | > 100 µM (inactive) | > 100 µM (inactive) | > 100 µM (inactive) | > 100 µM (inactive) | > 100 µM (inactive) | 69 µM (inactive) | > 100 µM (inactive) | > 100 µM (inactive) | > 100 µM (inactive) |
| O=C1CCC[C@H]2O[C@@H](COC(=O)c3ccccc3)C[C@H]2O1 | – | > 100 µM (inactive) | > 100 µM (inactive) | > 100 µM (inactive) | > 100 µM (inactive) | > 100 µM (inactive) | > 100 µM (inactive) | – | – | > 100 µM (inactive) | > 100 µM (inactive) | > 100 µM (inactive) | > 100 µM (inactive) | > 100 µM (inactive) | > 100 µM (inactive) | > 100 µM (inactive) | > 100 µM (inactive) | > 100 µM (inactive) | > 100 µM (inactive) | > 100 µM (inactive) |
| CC(=O)OC[C@@]12Cc3ccc(C)c(O)c3[C@]1(C)[C@@H](OC(C)=O)[C@]1(O)[C@H]([C@@H](OC(=O)c3ccccc3)[C@@H](C)[C@H]1OC(C)=O)[C@H]2OC(C)=O | – | > 50 µM (inactive) | > 50 µM (inactive) | – | – | > 50 µM (inactive) | > 50 µM (inactive) | > 50 µM (inactive) | > 50 µM (inactive) | > 50 µM (inactive) | > 50 µM (inactive) | > 50 µM (inactive) | > 50 µM (inactive) | > 50 µM (inactive) | > 50 µM (inactive) | > 50 µM (inactive) | > 50 µM (inactive) | > 50 µM (inactive) | > 50 µM (inactive) | 16.4 µM (inactive) |
| COc1ccc(/C=C2\Sc3nnc(CNc4ccc(Cl)cc4)n3N=C2c2cc(F)c(Cl)cc2Cl)cc1OC | – | 17.9 µM (inactive) | > 100 µM (inactive) | > 100 µM (inactive) | – | > 100 µM (inactive) | 4.97 µM (inactive) | 15.8 µM (inactive) | 29.3 µM (inactive) | 23.9 µM (inactive) | 28.1 µM (inactive) | 20.6 µM (inactive) | 59.8 µM (inactive) | > 100 µM (inactive) | – | > 100 µM (inactive) | > 100 µM (inactive) | > 100 µM (inactive) | 53.6 µM (inactive) | – |
| CCN(CC)CCOC(NC(C)=O)(c1ccccc1)c1ccccc1 | > 100 µM (inactive) | > 100 µM (inactive) | > 100 µM (inactive) | > 100 µM (inactive) | > 100 µM (inactive) | > 100 µM (inactive) | > 100 µM (inactive) | > 100 µM (inactive) | – | > 100 µM (inactive) | > 100 µM (inactive) | > 100 µM (inactive) | > 100 µM (inactive) | > 100 µM (inactive) | > 100 µM (inactive) | > 100 µM (inactive) | > 100 µM (inactive) | > 100 µM (inactive) | > 100 µM (inactive) | > 100 µM (inactive) |
| COc1cc(/C=C2\C[C@H]3[C@@H]4CC=C5C[C@@H](OC(C)=O)CC[C@]5(C)[C@H]4CC[C@]3(C)\C2=N\O)cc(OC)c1OC | 8.95 µM (inactive) | 3.78 µM (inactive) | 7.41 µM (inactive) | 5.58 µM (inactive) | 4.69 µM (inactive) | 4.71 µM (inactive) | 4.08 µM (inactive) | 0.942 µM (active) | 4.32 µM (inactive) | 4.2 µM (inactive) | 5.7 µM (inactive) | 7.82 µM (inactive) | 5.73 µM (inactive) | 4.33 µM (inactive) | 3.76 µM (inactive) | 13.1 µM (inactive) | 3.61 µM (inactive) | – | 4.08 µM (inactive) | 2.5 µM (inactive) |
| C=C(C[C@@H](O)[C@H](C)NC(=O)OCc1ccccc1)C(=O)OC(C)(C)C | > 100 µM (inactive) | 66.2 µM (inactive) | > 100 µM (inactive) | > 100 µM (inactive) | > 100 µM (inactive) | 76.6 µM (inactive) | 17.3 µM (inactive) | – | 53.8 µM (inactive) | 61.7 µM (inactive) | 45.6 µM (inactive) | > 100 µM (inactive) | > 100 µM (inactive) | 50 µM (inactive) | > 100 µM (inactive) | > 100 µM (inactive) | 26.1 µM (inactive) | > 100 µM (inactive) | > 100 µM (inactive) | 79.8 µM (inactive) |
| CC1(C)C=Cc2c(cc3oc4ccc5c(c4c(=O)c3c2O)C=CC(C)(C)O5)O1 | > 100 µM (inactive) | > 100 µM (inactive) | > 100 µM (inactive) | > 100 µM (inactive) | > 100 µM (inactive) | > 100 µM (inactive) | > 100 µM (inactive) | > 100 µM (inactive) | > 100 µM (inactive) | > 100 µM (inactive) | > 100 µM (inactive) | > 100 µM (inactive) | > 100 µM (inactive) | > 100 µM (inactive) | > 100 µM (inactive) | > 100 µM (inactive) | > 100 µM (inactive) | > 100 µM (inactive) | – | – |
| NC1c2c(Br)sc(N3CCCC3)c2C(=O)C1O (stereo not drawn) | > 50 µM (inactive) | > 50 µM (inactive) | > 50 µM (inactive) | – | > 50 µM (inactive) | > 50 µM (inactive) | > 50 µM (inactive) | – | > 50 µM (inactive) | > 50 µM (inactive) | > 50 µM (inactive) | > 50 µM (inactive) | > 50 µM (inactive) | > 50 µM (inactive) | > 50 µM (inactive) | – | > 50 µM (inactive) | > 50 µM (inactive) | > 50 µM (inactive) | > 50 µM (inactive) |
